Experimental data as given in patent publication US20250134874A1, “PHARMACEUTICAL FORMULATIONS COMPRISING 3-({[(4R)-7-{METHYL[4-(PROPAN-2-YL)PHENYL]AMINO}-3,4-DIHYDRO-2H-1-BENZOPYRAN-4-YL]METHYL}AMINO)PYRIDINE-4-CARBOXYLIC ACID” (TACHYON THERAPEUTICS, INC., priority 2021, published 2025).

Tested on: 301 cancer cell lines from different tumor types (OncoPanel; HD Biosciences)
Assay: 2D cell viability inhibition assay (CellTiter-Glo) in cancer cell line panel
Assay type: cell-based
Conditions: Homo sapiens
Method: In a larger screening study, compound 1 was evaluated across a broad cancer cell line panel (OncoPanel; HD Biosciences) composed of 301 cancer cell lines from different tumor types.
2D cell viability inhibition assays were performed in multiwell plates seeded with cells from the panel. After seeding, the plates were cultured overnight in a humidified incubator at 37° C. to promote adherence. Assays were initiated in individual wells by adding either DMSO as a vehicle control, growth media as a blank, or serially diluted compound 1 (10 μM to 0.0005 μM with 1:3 serial dilution). Cultures were incubated for 168 hours after which the number of viable cells in each test well was assessed using the CellTiter-Glo® Luminescent Cell Viability Assay. Luminescence readouts were performed using an EnVision® Multilabel Reader and the compound 1 readouts were normalized to the DMSO control readouts, expressed as a percent of the control. Outliers were flagged out by visual inspection. Percent of control was plotted against the corresponding compound 1 concentration and the absolute IC50 value was determined using four-parameter logistic non-linear regression as the concentration where inhibition was 50% of the control. For maximum inhibition <50%, the absolute IC50 was reported as >10. In addition to EC50 and IC50, AUC was determined and was normalized to the area corresponding to theoretical no-inhibition (the rectangular area defined by the compound dose range and 0 to 100 in y). Emax was recorded as the minimum in y with the compound dose range. For those cell lines where Emax>40, EC50 was manually set to 10 μM. A hierarchical clustering algorithm based on Euclidean distance between the standardized input values and “Ward.D” method as implemented in R hclust function was used to visualize the compound 1 cellular potency data. The sensitive/moderate/resistant calls for each cell line was determined by visually inspecting the resulting clustering dendrogram. All the analyses were done in R Core Team.

CC(C)c1ccc(N(C)c2ccc3c(c2)OCC[C@H]3CNc2cnccc2C(=O)O)cc1 [Compound 1, 3-({[(4R)-7-{methyl[4-(propan-2-yl)phenyl]amino}-3,4-dihydro-2H-1-benzopyran-4-yl]methyl}amino)pyridine-4-carboxylic acid]
EC50 (NCI-H1944, NCIH1944 cell line): ≥ 10000 nM
IC50 (NCI-H1944, NCIH1944 cell line): 16.3 nM
EC50 (NCI-H1975, NCIH1975 cell line): 25.5 nM
IC50 (NCI-H1975, NCIH1975 cell line): 34.8 nM
IC50 (NCI-H2009, 168 h, NCIH2009, lung, adenocarcinoma, 168 hours): > 10000 nM
EC50 (NCI-H2081, NCIH2081 cell line): 1.46 nM
IC50 (NCI-H2081, NCIH2081 cell line): 2.57 nM
EC50 (NCI-H2087, NCIH2087 cell line): 2.58 nM
IC50 (NCI-H2087, NCIH2087 cell line): 3.56 nM
EC50 (NCI-H2122, NCIH2122 cell line): 16.7 nM
IC50 (NCI-H2122, NCIH2122 cell line): 23.9 nM
EC50 (NCI-H2171, NCIH2171 cell line): ≥ 10000 nM
IC50 (NCI-H2171, NCIH2171 cell line): > 10000 nM
IC50 (NCI-H2228, NCIH2228 cell line): 179 nM
EC50 (NCI-H2286, NCIH2286 cell line): 2.53 nM
IC50 (NCI-H2286, NCIH2286 cell line): 3.51 nM
EC50 (NCI-H2291, NCIH2291 cell line): 7.55 nM
IC50 (NCI-H2291, NCIH2291 cell line): 8.4 nM
IC50 (NCI-H2347, NCIH2347 cell line): 13.1 nM
EC50 (NCI-N87, NCIN87 cell line): 3.94 nM
IC50 (NCI-N87, NCIN87 cell line): 4.29 nM
EC50 (NOMO-1, NOMO1 cell line): 3.92 nM
IC50 (NOMO-1, NOMO1 cell line): 5.01 nM
EC50 (NUGC-3, NUGC3 cell line): 5.63 nM
IC50 (NUGC-3, NUGC3 cell line): 7.72 nM
EC50 (NUGC-4, NUGC4 cell line): 6.62 nM
IC50 (NUGC-4, NUGC4 cell line): 10.6 nM
IC50 (ONS-76, 168 h, ONS76, central nervous system, NS, 168 hours): > 10000 nM
IC50 (OS-RC-2, OSRC2 cell line): > 10000 nM
IC50 (OVCAR-3, 168 h, NIHOVCAR3, ovary, NS, 168 hours): > 10000 nM
EC50 (P31-FUJ, P31FUJ cell line): 2.43 nM
IC50 (P31-FUJ, P31FUJ cell line): 4.32 nM
EC50 (PANC-1, PANC1 cell line): 51.5 nM
IC50 (PANC-1, PANC1 cell line): 68.6 nM
EC50 (PC-3, PC3 cell line): 11.8 nM
IC50 (PC-3, PC3 cell line): 14.5 nM
EC50 (PF-382, PF382 cell line): 1.89 nM
IC50 (PF-382, PF382 cell line): 3.69 nM
EC50 (PLC-PRF-5, PLCPRF5 cell line): 16.4 nM
IC50 (PLC-PRF-5, PLCPRF5 cell line): 28 nM
IC50 (RCM-1, RCM1 cell line): > 10000 nM
EC50 (RD, RD cell line): 4.79 nM
IC50 (RD, RD cell line): 9.29 nM
EC50 (REH, REH cell line): 1.32 nM
IC50 (REH, REH cell line): 1.21 nM
EC50 (RKO, RKO cell line): 8.5 nM
IC50 (RKO, RKO cell line): 11.5 nM
EC50 (RL, RL cell line): 1.88 nM
IC50 (RL, RL cell line): 2.99 nM
IC50 (RPMI-7951, 168 h, RPMI7951, skin, NS, 168 hours): > 10000 nM
EC50 (RPMI-8226, RPMI8226 cell line): 10.4 nM
IC50 (RPMI-8226, RPMI8226 cell line): 12.5 nM
EC50 (RT112/84, RT11284 cell line): 4.14 nM
IC50 (RT112/84, RT11284 cell line): 4.43 nM
IC50 (SAOS-2, 168 h, SAOS2, bone, NS, 168 hours): > 10000 nM
EC50 (SCC-4, SCC4 cell line): 5.57 nM
IC50 (SCC-4, SCC4 cell line): 10.5 nM
IC50 (SCC-9, 168 h, SCC9, upper aerodigestive tract, squamous cell carcinoma, 168 hours): > 10000 nM
IC50 (SCC-15, 168 h, SCC15, upper aerodigestive tract, squamous cell carcinoma, 168 hours): > 10000 nM
IC50 (SCC-25, 168 h, SCC25, upper aerodigestive tract, squamous cell carcinoma, 168 hours): > 10000 nM
EC50 (SCaBER, SCABER cell line): 8.93 nM
IC50 (SCaBER, SCABER cell line): 15.2 nM
EC50 (SH-SY5Y, SHSY5Y cell line): 4.32 nM
IC50 (SH-SY5Y, SHSY5Y cell line): 13.5 nM
EC50 (SK-BR-3, SKBR3 cell line): 4.32 nM
IC50 (SK-BR-3, SKBR3 cell line): 7.14 nM
EC50 (SK-CO-1, SKCO1 cell line): ≥ 10000 nM
IC50 (SK-CO-1, SKCO1 cell line): 30.6 nM
IC50 (SK-HEP1, 168 h, SKHEP1, liver, adenocarcinoma, 168 hours): > 10000 nM
EC50 (SK-LU-1, SKLU1 cell line): 8.49 nM
IC50 (SK-LU-1, SKLU1 cell line): 40 nM
IC50 (SK-MEL3, SKMEL3 cell line): 472 nM
EC50 (SK-MEL-1, SKMEL1 cell line): 0.536 nM
IC50 (SK-MEL-1, SKMEL1 cell line): 9.24 nM
EC50 (SK-MEL-2, SKMEL2 cell line): 27 nM
IC50 (SK-MEL-2, SKMEL2 cell line): 140 nM
EC50 (SK-MEL-5, SKMEL5 cell line): 14.8 nM
IC50 (SK-MEL-5, SKMEL5 cell line): 16.8 nM
IC50 (SK-MEL-24, 168 h, SKMEL24, skin, NS, 168 hours): > 10000 nM
EC50 (SK-MEL-28, SKMEL28 cell line): 5.63 nM
IC50 (SK-MEL-28, SKMEL28 cell line): 5.56 nM
EC50 (SK-MES-1, SKMES1 cell line): 24.3 nM
IC50 (SK-MES-1, SKMES1 cell line): 47.5 nM
IC50 (SK-N-SH, 168 h, SKNSH, autonomic ganglia, NS): > 10000 nM
IC50 (SK-OV-3, 168 h, SKOV3, ovary, adenocarcinoma, 168 hours): > 10000 nM
EC50 (SNB-19, SNB19 cell line): 7.01 nM
IC50 (SNB-19, SNB19 cell line): 11.6 nM
EC50 (SNU-5, SNU5 cell line): 82.4 nM
IC50 (SNU-5, SNU5 cell line): 146 nM
EC50 (SNU-16, SNU16 cell line): 3.69 nM
IC50 (SNU-16, SNU16 cell line): 4.22 nM
EC50 (SNU-398, SNU398 cell line): 9.63 nM
IC50 (SNU-398, SNU398 cell line): 18 nM
IC50 (SNU-C1, 168 h, SNUC1, large intestine, adenocarcinoma, 168 hours): > 10000 nM
IC50 (SUP-T1, SUPT1 cell line): 3330 nM
EC50 (SW48, SW48 cell line): ≥ 10000 nM
IC50 (SW48, SW48 cell line): 50 nM
EC50 (SW480, SW480 cell line): 7.73 nM
IC50 (SW480, SW480 cell line): 9.79 nM
EC50 (SW780, SW780 cell line): 11.8 nM
IC50 (SW780, SW780 cell line): 13 nM
IC50 (SW837, 168 h, SW837, large intestine, adenocarcinoma, 168 hours): > 10000 nM
IC50 (SW1417, 168 h, SW1417, large intestine, adenocarcinoma, 168 hours): > 10000 nM
EC50 (SW1463, SW1463 cell line): 9.18 nM
IC50 (SW1463, SW1463 cell line): 9.24 nM
EC50 (SW1710, SW1710 cell line): 27.3 nM
IC50 (SW1710, SW1710 cell line): 63.3 nM
IC50 (SW1990, SW1990 cell line): > 10000 nM
EC50 (SW-620, SW620 cell line): 26.3 nM
IC50 (SW-620, SW620 cell line): 29.3 nM
EC50 (T84, T84 cell line): 10.1 nM
IC50 (T84, T84 cell line): 21 nM
EC50 (TALL-1, TALL1 cell line): 0.895 nM
